For orientation: half-life means how long it takes for the measured level to halve. By AUC is commonly meant concentration integrated over time.

Data set [1] in a line: Half life in rat liver microsomes by LC/MS analysis. Format: ADME, Microsome. For orientation: Microsomes from liver hold many membrane-bound enzymes, among them those of drug oxidation.
A short description of data set [2]: Half life in human liver microsomes by LC/MS analysis. In kind it is ADME, Microsome.
Data set [3] can be described thus: Half life in monkey at 1.1 mg/kg, iv. Conditions: rhesus monkey, in vivo. Format: ADME, organism-based, Macaca mulatta. Further details: dose 1.1 mg/kg, route intravenous.
Data set [4] is described as follows: Half life in monkey at 7.6 mg/kg, po. Further details: dose 7.6 mg/kg, route oral. The note with it: rhesus monkey, in vivo. In kind it is ADME, organism-based, Macaca mulatta.
The nature of data set [5]: AUC in monkey at 7.6 mg/kg, po. Format: ADME, organism-based, Macaca mulatta. Further details: dose 7.6 mg/kg, route oral. Conditions: rhesus monkey, plasma.
Data set [6] can be described thus: Volume of distribution at steady state in monkey at 1.1 mg/kg, iv and 7.6 mg/kg, po. Conditions: rhesus monkey, in vivo, read-out: Vdss. Format: ADME, organism-based, Macaca mulatta.
Data set [7] is described as follows: Oral bioavailability in monkey at 7.6 mg/kg. In kind it is ADME, organism-based, Macaca mulatta. The note with it: rhesus monkey, in vivo.

Regarding `N#Cc1ccccc1Cn1c(N2CCC[C@@H](N)C2)ncc(Br)c1=O`, the half-life in data set [1] was 1.57 h; in data set [2], over 3.33 h; in data set [3], 4.2 h; in data set [4], 5.4 h. Further, in data set [5], the AUC was determined as 8200 ng·h/mL. In addition, in data set [6], the Vd amounted to 4.2 L/kg. Further, the bioavailability in data set [7] turned out to be 112%.

With `N#Cc1ccccc1Cn1c(N2CCC[C@@H](N)C2)nccc1=O`, the values for the half-life in data set [1] and in data set [2] were 2.18 h and over 3.33 h, respectively.

For the compound `N#Cc1ccccc1Cn1c(N2CCC[C@@H](N)C2)ncc(F)c1=O`, the half-life in data set [1] and in data set [2] was over 3.33 h each time.

Consider `N#Cc1ccccc1Cn1c(N2CCC[C@@H](N)C2)ncc(Cl)c1=O`, for which the figures for the half-life in data set [1] and in data set [2] were 3.32 h and over 3.33 h, respectively.

As to `Cc1nc(N2CCC[C@@H](N)C2)n(Cc2ccccc2C#N)c(=O)c1Br`, the half-life in data set [1] was 0.383 h; in data set [2] it was over 3.33 h.

In the case of `N#Cc1ccccc1Cn1c(N2CCC[C@@H](N)C2)ncc(I)c1=O`, the half-life worked out at 0.983 h in data set [1] and 2.68 h in data set [2].

Regarding `Cc1nc(N2CCC[C@@H](N)C2)n(Cc2ccccc2C#N)c(=O)c1C`, the half-life was 0.167 h in data set [1] and over 3.33 h in data set [2].

In the case of `CCc1cnc(N2CCC[C@@H](N)C2)n(Cc2ccccc2C#N)c1=O`, the half-life in data set [1] was 0.117 h; in data set [2], over 3.33 h.

For the compound `COc1cnc(N2CCC[C@@H](N)C2)n(Cc2ccccc2C#N)c1=O`, the half-life is 0.333 h in data set [1] and over 3.33 h in data set [2].

For the compound `N#Cc1ccccc1Cn1c(N2CCC[C@@H](N)C2)nc(-c2ccccc2)cc1=O`, the results for the half-life in data set [1] and in data set [2] were 0.2 h and 1.98 h, respectively.

Consider `N#Cc1ccccc1Cn1c(N2CCC[C@@H](N)C2)nc2c(c1=O)CCCC2`, for which the half-life was 0.1 h in data set [1] and 1.38 h in data set [2].

`N#Cc1ccccc1Cn1c(N2CCC[C@@H](N)C2)ncc(-c2ccccc2)c1=O`: the values for the half-life in data set [1] and in data set [2] were 0.0167 h and 1.17 h, respectively.

Consider `N#Cc1ccccc1Cn1c(N2CCC[C@@H](N)C2)ncc(-c2ccoc2)c1=O`, for which the half-life in data set [1] was found to be 0.0667 h; in data set [2] it was 0.933 h.

As for `N#Cc1ccccc1Cn1c(N2CCC[C@@H](N)C2)ncc(-c2cc[nH]c2)c1=O`, the half-life came out at 1.18 h in data set [1] and 1.02 h in data set [2].

Regarding `C#Cc1cnc(N2CCC[C@@H](N)C2)n(Cc2ccccc2C#N)c1=O`, the half-life in data set [1] and in data set [2] was over 3.33 h throughout.

In the case of `CC#Cc1cnc(N2CCC[C@@H](N)C2)n(Cc2ccccc2C#N)c1=O`, the half-life in data set [1] and in data set [2] was over 3.33 h throughout.

`N#Cc1ccccc1Cn1c(N2CCC[C@@H](N)C2)ncc(C#CCO)c1=O`: the half-life in data set [1] and in data set [2] was over 3.33 h each time.

Consider `C=Cc1cnc(N2CCC[C@@H](N)C2)n(Cc2ccccc2C#N)c1=O`, for which the half-life in data set [1] turned out to be 0.1 h; in data set [2], 2.73 h.

For `N#Cc1ccccc1Cn1c(N2CCC[C@@H](N)C2)ncc(/C=C/c2ccccc2)c1=O`, the half-life in data set [1] is 0.567 h; in data set [2], over 3.33 h.

Take `N#Cc1ccccc1Cn1c(N2CCC[C@@H](N)C2)ncc(/C=C/c2ccc(F)cc2)c1=O`: the results for the half-life in data set [1] and in data set [2] were over 3.33 h and 3.1 h, respectively.

For `N#Cc1ccccc1Cn1c(N2CCC[C@@H](N)C2)ncc(/C=C/c2cccnc2)c1=O`, the values for the half-life in data set [1] and in data set [2] were 0.45 h and over 3.33 h, respectively.

The values above are taken from ChEMBL document CHEMBL1649419, “Design and synthesis of pyrimidinone and pyrimidinedione inhibitors of dipeptidyl peptidase IV” (J Med Chem, 2011).
